The values that follow come from patent US4603134A, “Piperazine derivative and pharmaceutical composition containing the same” (Ferrer International, S.A., priority 1984, dated 1986).

Structures are written as SMILES.

Assay [1] has as its system isolate of guinea-pig ileum. Put plainly: Anti-histamine activity in an isolate of guinea-pig ileum, suspended in a Tyrode bath at 32°-35° C. As to conditions: for IC50: Cavia porcellus, isolated guinea-pig ileum, Tyrode bath, 32°-35° C., read-out: anti-histamine activity, ED50. As to the method:
The anti-histamine activity was tested in an isolate of guinea-pig ileum, suspended in a Tyrode bath at 32°-35° C. according to a protocol described by R. A. Turner (Screening Methods in Pharmacology, Academic Press, 1965, p. 43).

A short description of assay [2]: Activity on the blood stream (vasoactive, antiarrhythmic, hypotensor). As to conditions: no test described.
The test system of assay [3] is isolate of guinea-pig ileum. The note with it: background statement on the non-fluorine analog; cited from earlier work.

For the compound `Fc1ccc(C(c2ccc(F)cc2)N2CCN(CCCC3(c4ccccc4)OCCO3)CC2)cc1` [Example 1, 1-(4,4'-difluorobenzhydryl)-4-(2-phenyl-1,3-dioxolane-2-propyl)piperazine], the IC50 in assay [1] came to 0.15 µM. In assay [1] (versus non-fluorine analog (Spanish Pat. No. 514 340)), the “antihistaminic effect compared with non-fluorine analog (in words)” value is “higher than that of its non-fluorine analog”. The “activity on the blood stream (in words)” value in assay [2] was “strong activity on the blood stream”.
Regarding `c1ccc(C(c2ccccc2)N2CCN(CCCC3(c4ccccc4)OCCO3)CC2)cc1` [Spanish Pat. 514 340, reference compound], the IC50 in assay [1] came out at 0.35 µM. Also, the “anti-histaminic effect (in words)” value in assay [3] was “unsatisfactory”.
